No end group written: not given here.
Target: T1, ACE (Oryctolagus cuniculus, UniProt P12822)
T1 sequence (P12822 34-1310): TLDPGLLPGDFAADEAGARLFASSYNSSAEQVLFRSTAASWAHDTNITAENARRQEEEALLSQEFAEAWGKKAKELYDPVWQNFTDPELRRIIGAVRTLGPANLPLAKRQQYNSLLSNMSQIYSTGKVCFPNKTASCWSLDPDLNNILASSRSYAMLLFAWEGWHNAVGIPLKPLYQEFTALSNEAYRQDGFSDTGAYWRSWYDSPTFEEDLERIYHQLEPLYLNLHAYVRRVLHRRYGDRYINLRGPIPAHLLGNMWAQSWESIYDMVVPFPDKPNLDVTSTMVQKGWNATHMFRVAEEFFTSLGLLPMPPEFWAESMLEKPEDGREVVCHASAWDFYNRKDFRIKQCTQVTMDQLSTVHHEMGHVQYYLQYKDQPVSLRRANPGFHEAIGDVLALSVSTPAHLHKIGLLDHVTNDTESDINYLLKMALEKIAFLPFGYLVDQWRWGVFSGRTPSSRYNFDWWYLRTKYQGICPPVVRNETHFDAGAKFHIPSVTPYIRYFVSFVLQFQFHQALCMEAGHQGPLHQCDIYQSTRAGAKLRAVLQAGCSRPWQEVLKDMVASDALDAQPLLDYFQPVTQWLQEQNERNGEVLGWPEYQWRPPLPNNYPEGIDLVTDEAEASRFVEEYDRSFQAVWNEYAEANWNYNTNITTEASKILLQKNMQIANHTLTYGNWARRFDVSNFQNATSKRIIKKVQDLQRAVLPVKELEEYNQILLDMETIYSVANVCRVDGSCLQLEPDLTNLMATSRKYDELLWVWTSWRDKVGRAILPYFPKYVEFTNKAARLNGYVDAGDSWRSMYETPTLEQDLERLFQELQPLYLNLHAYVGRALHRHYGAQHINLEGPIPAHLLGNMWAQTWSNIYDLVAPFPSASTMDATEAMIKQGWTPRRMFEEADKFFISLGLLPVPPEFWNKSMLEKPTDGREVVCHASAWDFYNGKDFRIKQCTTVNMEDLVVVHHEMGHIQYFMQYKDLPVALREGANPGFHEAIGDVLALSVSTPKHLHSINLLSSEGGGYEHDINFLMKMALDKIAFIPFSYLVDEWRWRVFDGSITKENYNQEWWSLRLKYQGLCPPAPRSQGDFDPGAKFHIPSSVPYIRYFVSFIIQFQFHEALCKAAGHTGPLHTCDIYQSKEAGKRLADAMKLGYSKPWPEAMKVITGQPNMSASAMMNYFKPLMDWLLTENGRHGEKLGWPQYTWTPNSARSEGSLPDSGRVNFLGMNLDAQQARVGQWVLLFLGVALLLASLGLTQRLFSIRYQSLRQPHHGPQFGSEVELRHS
Assay: ACE pre-incubation of milk hydrolysate peptide libraries, stable-isotope dimethyl labeling and LC-MS/MS (D/H ratio)
Type: in vitro ADME, rabbit
Design: ACE (EC 3.4.15.1, 1 unit) from rabbit lungs; purchased Sigma Chemical Co. (St. Louis, MO, USA); host or cells: rabbit lungs (tissue-derived enzyme)
Settings: milk hydrolysate peptide library (<3 kDa); ACE-treated (0.05 mU/μL ACE, borate buffer, 37 °C, 3 h: 1.5 h static + 1.5 h 200 rpm; D-labeled) versus untreated (H-labeled) peptide; intensity ratio in LC-MS; <1 = hydrolysed by ACE
Description: The peptide libraries (200 μg) dissolved in borate buffer were equally divided into two parts, one was without any treatment (control group); the other part (experimental group) was incubated with 0.05 mU/μL ACE at 37℃ for 1.5 h statically, followed by gentle shaking at 200 rpm for another 1.5 h, and then the ACE reaction was quenched using 60 μL of 1N HCl. After lyophilization, both samples were redissolved in 100 μL of 0.1M sodium acetate and modified using stable-isotope dimethyl labeling according to the previous study with slight modifications. Briefly, the control group (without ACE incubation) had 4 μL of formaldehyde (37% solution in H2O) and 1 M NaBH3CN (10 μL) added to it; the experimental group had 20% formaldehyde-d2 (8 μL) and 1M NaBH3CN (10 μL) added to it. After 1h, 5 μL of ammonia (28% solution in H2O) were added individually to both groups to stop the reaction. The experimental group and the control group were combined and desalted using the PepClean™C18 spin column. The resulting peptide mixture was lyophilized and kept at −20 °C prior to LC-MS/MS analysis. Formaldehyde is known to the state of California to cause cancer; special caution was taken including the use of surgical gloves and a fume hood when formaldehyde was handled.
The combined mixture re-dissolved in 5% ACN containing 0.1% formic acid was separated using an Ultimate 3000 RSLC system (Dionex, Sunnyvale, CA, USA) coupled with a C18 column (Acclaim PepMap RSLC, 75 μm × 150 mm, Thermo Scientific, Waltham, Middlesex, MA, USA) and analyzed with a Thermo Q-ExactiveTM mass spectrometer (Thermo Scientific Inc., Waltham, Middlesex, MA, USA). The elution solution was composed of mobile phase A (0.1% formic acid in water) and B (0.1% formic acid in 95% acetonitrile). The elution gradient was arranged as follows: (i) isocratic elution using 1% B in the first 5.5 min for sample loading, (ii) linear gradient from 1% to 60% B in the next 39.5 min, (iii) linear gradient from 60% to 80% B in the following 10 min, and finally (iv) isocratic elution using 1% solution B for 10 min. The flow rate applied in the LC separation was maintained at 250 µL/min. The separated peptides were analyzed and quantified using Q-ExactiveTM mass spectrometry which was operated in the data-dependent mode and switched automatically between MS and HCD-MS2. A full MS scan was carried out in a 100 and 1500 m/z range, and the 14 ions of the highest intensities were selected for MS/MS scans. The RAW data were converted to the MGF file format followed by database-assisted sequencing with PEAKS DB using PEAKS Studio X (Bioinformatics Solutions Inc., Waterloo, ON, Canada). The parameters used for peptide identification were listed as follows: (1) Database: UniProt_SwissProt (Bos taurus); (2) Enzyme: pepsin, trypsin, α-chymotrypsin, or GI (the combination of these three proteases); (3) Type of enzyme: Unspecific; (4) Instrument: Orbitrap; (5) Parent mass error tolerance: 20 ppm; (6) Fragment mass error tolerance: 0.6 Da; (7) Variable modifications: Dimethyl (K), Dimethyl (N-term), Dimethyl:2H(4) (K), and Dimethyl:2H(4) (N-term) were used for identification and quantitative analysis. The sequence identified through the database was validated by manually matching with the MS/MS spectrum in the raw data. In addition to MS/MS analysis coupled with PEAKS studio, the ACE’s substrate candidates were further confirmed using the synthetic peptides with corresponding sequences by comparison with their LC retention times, m/z values, and MS/MS spectra. The relative abundances of hydrogen (H) and deuterium (D) labeled peptides were quantified based on the peak areas in their corresponding selective ion chromatograms (SIC). The D/H ratio of identified peptide with the same sequence was further examined by their relative signal intensities in MS spectrum. Theoretically, the D/H ratio of the isobaric pair should stay at 1 if the peptide will not react with ACE. […]

Row | Substance | D/H Ratio
1 | LVYPFPGPIHNSL [LL-13] | 0.26
2 | HLPLPLLQSW [HW-10] | 0.12
3 | FFVAPFPEVF [FF-10] | 0.87
4 | YVPLGTQ [YQ-7] | 0.33
5 | AYFYPELFR [AR-9] | 0.19
6 | LHLPLPLL [LL-8] | 0.74

— paper PMC9965520, “An Efficient Peptidomics Screening for Exogenous Substrates and Inhibitory Peptides of the Dipeptidase ACE from Milk Hydrolysate” (Pharmaceutics, 2023)
